Laboratory results reported in US11084800B2 (Achillion Pharmaceuticals, Inc., priority 2017, dated 2021).

molecular target: Human Factor D (Homo sapiens (Human), UniProt P00746); assay: Human Factor D Assay; format: biochemical; settings: Factor D inhibition, assay of Example 10; read-out: IC5 (Stars)
Procedure, shortened: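 Thioester substrate Z-L-Lys-SBz (100 μM) with Ellman's reagent DTNB (100 μM) reports activity of 80 nM human serum-derived enzyme, kinetically at 405 nm over 30 min. Compound preincubated 5 min, room temperature, pH 7.5 Tris/1 M NaCl; IC50 by nonlinear fit of rates.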

Chain of Human Factor D (P00746 26-253): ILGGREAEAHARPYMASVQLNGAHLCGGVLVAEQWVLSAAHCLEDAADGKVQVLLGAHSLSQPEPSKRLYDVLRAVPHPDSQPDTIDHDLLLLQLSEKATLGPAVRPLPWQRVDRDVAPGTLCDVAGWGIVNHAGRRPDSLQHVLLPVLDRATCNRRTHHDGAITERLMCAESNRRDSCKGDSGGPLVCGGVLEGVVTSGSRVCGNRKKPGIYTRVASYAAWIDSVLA

| SMILES | IC50 |
| --- | --- |
| Cc1ncc(-c2ccc3c(cnn3CC(=O)N3C[C@H](F)C[C@H]3C(=O)Nc3cccc(Br)n3)c2)cn1 [Compound 444, (2S,4R)-N-(6-bromopyridin-2-yl)-4-fluoro-1-(2-(5-(2-methylpyrimidin-5-yl)-1H-indazol-1-yl)acetyl)pyrrolidine-2-carboxamide] | 1000 to 10000 nM |
| CCc1nn(CC(=O)N2C[C@H](F)C[C@H]2C(=O)Nc2cccc(Br)n2)c2ccc(-c3cnc(C)nc3)cc12 [Compound 445, (2S,4R)-N-(6-bromopyridin-2-yl)-1-(2-(3-ethyl-5-(2-methylpyrimidin-5-yl)-1H-indazol-1-yl)acetyl)-4-fluoropyrrolidine-2-carboxamide] | 1000 to 10000 nM |
| CC(=O)c1nn(CC(=O)N2C[C@H](F)C[C@H]2C(=O)N(C)c2cccc(Br)n2)c2ccc(-c3cnc(C)nc3)cc12 [Compound 446, (2S,4R)-1-(2-(3-acetyl-5-(2-methylpyrimidin-5-yl)-1H-indazol-1-yl)acetyl)-N-(6-bromopyridin-2-yl)-4-fluoro-N-methylpyrrolidine-2-carboxamide] | > 10000 nM |
| CC(=O)c1nn(CC(=O)N2[C@H](C(=O)Nc3cncc(Br)n3)C[C@@]3(Cc4nc(C)no4)C[C@@H]23)c2c(C)cc(-c3cnc(C)nc3)cc12 [Compound 447, (1R,3S,5R)-2-(2-(3-acetyl-7-methyl-5-(2-methylpyrimidin-5-yl)-1H-indazol-1-yl)acetyl)-N-(6-bromopyrazin-2-yl)-5-((3-methyl-1,2,4-oxadiazol-5-yl)methyl)-2-azabicyclo[3.1.0]hexane-3-carboxamide] | < 1000 nM |
| CC(=O)c1cn(CC(=O)N2[C@H](C(=O)Nc3nc(OC(F)(F)F)ccc3C)C[C@@]3(C)C[C@@H]23)c2c(C)cc(-c3cnc(C)nc3)cc12 [Compound 448, (1R,3S,5R)-2-(2-(3-acetyl-7-methyl-5-(2-methylpyrimidin-5-yl)-1H-indo1-1-yl)acetyl)-5-methyl-N-(3-methyl-6-(trifluoromethoxy)pyridin-2-yl)-2-azabicyclo[3.1.0]hexane-3-carboxamide] | < 1000 nM |
| CC(=O)c1nn(CC(=O)N2[C@H](C(=O)Nc3cccc(Oc4ccccn4)n3)C[C@@]3(C)C[C@@H]23)c2c(C)cc(-c3cnc(C)nc3)cc12 [Compound 449, (1R,3S,5R)-2-(2-(3-acetyl-7-methyl-5-(2-methylpyrimidin-5-yl)-1H-indazol-1-yl)acetyl)-5-methyl-N-(6-(pyridin-2-yloxy)pyridin-2-yl)-2-azabicyclo[3.1.0]hexane-3-carboxamide] | < 1000 nM |
| CC(=O)c1nn(CC(=O)N2[C@H](C(=O)Nc3nc(-c4ccccn4)ccc3C)C[C@@]3(C)C[C@@H]23)c2ccc(-c3cnc(C)nc3)cc12 [Compound 450, (1R,3S,5R)-2-(2-(3-acetyl-5-(2-methylpyrimidin-5-yl)-1H-indazol-1-yl)acetyl)-5-methyl-N-(5-methyl-[2,2′-bipyridin]-6-yl)-2-azabicyclo[3.1.0]hexane-3-carboxamide] | 1000 to 10000 nM |
| CC(=O)c1nn(CC(=O)N2[C@H](C(=O)Nc3cccc(-n4ccccc4=O)n3)C[C@@]3(C)C[C@@H]23)c2c(C)cc(-c3cnc(C)nc3)cc12 [Compound 451, (1R,3S,5R)-2-(2-(3-acetyl-7-methyl-5-(2-methylpyrimidin-5-yl)-1H-indazol-1-yl)acetyl)-5-methyl-N-(2-oxo-2H-[1,2′-bipyridin]-6′-yl)-2-azabicyclo[3.1.0]hexane-3-carboxamide] | < 1000 nM |
| CC(=O)c1nn(CC(=O)N2[C@H](C(=O)Nc3nc(Br)ccc3C)C[C@@]3(C)C[C@@H]23)c2ccc(-c3ccncc3)cc12 [Compound 452, (1R,3S,5R)-2-(2-(3-acetyl-5-(pyridin-4-yl)-1H-indazol-1-yl)acetyl)-N-(6-bromo-3-methylpyridin-2-yl)-5-methyl-2-azabicyclo[3.1.0]hexane-3-carboxamide] | < 1000 nM |
| CC(=O)c1nn(CC(=O)N2[C@H](C(=O)Nc3nc(Br)ccc3C)C[C@@]3(C)C[C@@H]23)c2ccc(-c3ccc(C)cn3)cc12 [Compound 453, (1R,3S,5R)-2-(2-(3-acetyl-5-(5-methylpyridin-2-yl)-1H-indazol-1-yl)acetyl)-N-(6-bromo-3-methylpyridin-2-yl)-5-methyl-2-azabicyclo[3.1.0]hexane-3-carboxamide] | < 1000 nM |
| CC(=O)c1nn(CC(=O)N2[C@H](C(=O)Nc3cc(C)cc(Br)n3)C[C@@]3(C)C[C@@H]23)c2c(C)cc(-c3cnc(C)nc3)cc12 [Compound 456, (1R,3S,5R)-2-(2-(3-acetyl-7-methyl-5-(2-methylpyrimidin-5-yl)-1H-indazol-1-yl)acetyl)-N-(6-bromo-4-methylpyridin-2-yl)-5-methyl-2-azabicyclo[3.1.0]hexane-3-carboxamide] | < 1000 nM |
| CC(=O)c1cn(CC(=O)N2[C@H](C(=O)Nc3nc(Br)c(F)cc3C)C[C@@]3(C)C[C@@H]23)c2ccc(-c3cnc(C)nc3)cc12 [Compound 457, (1R,3S,5R)-2-(2-(3-acetyl-5-(2-methylpyrimidin-5-yl)-1H-indol-1-yl)acetyl)-N-(6-bromo-5-fluoro-3-methylpyridin-2-yl)-5 methyl-2-azabicyclo[3.1.0]hexane-3-carboxamide] | < 1000 nM |
| CC(=O)c1nn(CC(=O)N2[C@H](C(=O)N[C@@H](CC(C)C)C(=O)O)C[C@@]3(C)C[C@@H]23)c2c(C)cc(-c3cnc(C)nc3)cc12 [Compound 458, ((1R,3S,5R)-2-(2-(3-acetyl-7-methyl-5-(2-methylpyrimidin-5-yl)-1H-indazol-1-yl)acetyl)-5-methyl-2-azabicyclo[3.1.0]hexane-3-carbonyl)-L-leucine] | < 1000 nM |
| CC(=O)c1cn(CC(=O)N2[C@H](C(=O)Nc3nc(C(F)(F)F)ccc3C)C[C@@]3(C)C[C@@H]23)c2c(C)cc(-c3cnc(C)nc3)cc12 [Compound 459, (1R,3S,5R)-2-(2-(3-acetyl-7-methyl-5-(2-methylpyrimidin-5-yl)-1H-indol-1-yl)acetyl)-5-methyl-N-(3-methyl-6-(trifluoromethyl)pyridin-2-yl)-2-azabicyclo[3.1.0]hexane-3-carboxamide] | < 1000 nM |
| CC(=O)c1nn(CC(=O)N2[C@H](C(=O)Nc3cccn(-c4ccccn4)c3=O)C[C@@]3(C)C[C@@H]23)c2c(C)cc(-c3cnc(C)nc3)cc12 [Compound 460, (1R,3S,5R)-2-{2-[3-Acetyl-7-methyl-5-(2-methylpyrimidin-5-yl)indazol-1-yl]acetyl}-5-methyl-N-{2-oxo-[1,2′-bipyridine]-3-yl}-2-azabicyclo[3.1.0]hexane-3-carboxamide] | < 1000 nM |

same assay, conditions: Table 8; Factor D 80 nM, substrate Z-L-Lys-SBz; read-out: IC50

| SMILES | IC50 |
| --- | --- |
| CCCCCCCCCCCCCCCC(=O)NCCCC[C@H](NC(=O)[C@H](CCC(=O)O)NC(=O)[C@H](Cc1ccc(O)cc1)NC(=O)[C@H](CCC(=O)O)NC(C)=O)C(=O)N[C@@H](CCC(=O)O)C(=O)N[C@@H](Cc1ccc(O)cc1)C(=O)N[C@@H](CCC(=O)O)C(=O)NC[C@@]12C[C@@H](C(=O)Nc3nc(Br)ccc3C)N(C(=O)Cn3nc(C(C)=O)c4cc(-c5cnc(C)nc5)cc(C)c43)[C@@H]1C2 [Compound 443, (4S,7S,10S,13S,16S,19S,22S)-22-acetamido-4-((((1R,3S,5R)-2-(2-(3-acetyl-7-methyl-5-(2-methylpyrimidin-5-yl)-1H-indazol-1-yl)acetyl)-3-((6-bromo-3-methylpyridin-2-yl)carbamoyl)-2-azabicyclo[3.1.0]hexan-5-yl)methyl)carbamoyl)-10,16-bis(2-carboxyethyl)-7,19-bis(4-hydroxybenzyl)-6,9,12,15,18,21-hexaoxo-13-(4-palmitamidobutyl)-5,8,11,14,17,20-hexaazapentacosanedioic acid] | 1000 to 10000 nM |
